Assay results reported in patent publication US12428428B2, “Tricyclic tetrahydroisoquinoline derivative, preparation method therefor and application thereof in medicine” (JIANGSU HENGRUI MEDICINE CO., LTD., priority 2020, dated 2025).

Columns and labels:
Format in all cases: cell-based
ER (estrogen receptor) = ER (estrogen receptor) (Homo sapiens (Human), UniProt P03372); assay: Inhibition of binding of E to ER (MCF-7/ERE-luciferase reporter cells); settings: MCF-7/ERE-luciferase cells, 0.1 nM estradiol, 24 h
ER (estrogen receptor), sequence (P03372 whole entry): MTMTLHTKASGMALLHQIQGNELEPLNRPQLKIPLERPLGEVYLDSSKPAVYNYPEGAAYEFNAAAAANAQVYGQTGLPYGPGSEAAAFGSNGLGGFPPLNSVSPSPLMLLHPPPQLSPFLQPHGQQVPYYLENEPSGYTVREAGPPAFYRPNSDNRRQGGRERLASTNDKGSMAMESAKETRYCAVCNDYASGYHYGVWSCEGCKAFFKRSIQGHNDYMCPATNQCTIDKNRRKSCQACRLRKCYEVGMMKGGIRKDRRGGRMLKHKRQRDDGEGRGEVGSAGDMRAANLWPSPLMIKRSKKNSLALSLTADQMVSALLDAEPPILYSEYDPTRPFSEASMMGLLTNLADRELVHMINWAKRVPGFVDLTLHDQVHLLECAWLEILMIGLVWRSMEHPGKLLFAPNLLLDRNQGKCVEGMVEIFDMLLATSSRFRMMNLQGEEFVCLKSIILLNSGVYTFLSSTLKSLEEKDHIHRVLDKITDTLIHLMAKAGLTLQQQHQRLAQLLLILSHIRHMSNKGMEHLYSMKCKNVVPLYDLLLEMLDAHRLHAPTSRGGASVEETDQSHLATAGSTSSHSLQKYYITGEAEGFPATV
Experimental: The compounds of the present disclosure can inhibit the binding of E (estrogen) to ER (estrogen receptor), thereby blocking the binding of the complex of E and ER to ERE (estrogen response element), and consequently the expression of downstream luciferase proteins. The inhibitory effects of the compounds of the present disclosure on the binding of E to ER was tested by using the following method.
An ERE was cloned upstream of the luciferase gene, and MCF-7/ERE-luciferase monoclonal cells were selected by transfection of MCF-7 (TCHu74, National Collection of Authenticated Cell Cultures). The MCF-7/ERE-luciferase cells were seeded into a 96-well plate with an MEM (hyclone, SH30024.01B) medium containing 10% charcoal stripped FBS (Moregate, FBSF), 1% sodium pyruvate (sigma, S8636), 1% non-essential amino acids (sigma, M7145) and 500 μg/mL G418 at a density of 30,000 cells/well and cultured at 37° C. with 5% CO2. 20 mM stock solutions of the drugs are prepared, serially diluted 10-fold with 100% DMSO, and then diluted 20-fold with the medium. After the cells were cultured for 24 h, the medium was removed. 0.1 nM estradiol (sigma, E2758) and 10 μL of a medium-diluted drug were added to each well, and DMSO was added to the control group. The mixtures were well mixed by gentle shaking. The cells were cultured in an incubator at 37° C. with 5% CO2 for 24 h, and then the cell culture liquid was removed, followed by the addition of 50 μL of a luciferase substrate (Promega, E6110) to each well. The plate was let stand at room temperature in the dark for 10-15 min, and the chemiluminescence signal values were determined.
The inhibitory effects of the compounds of the present disclosure on the binding of E to ER were tested through the above experiment. The chemiluminescence signal value was plotted against the compound concentration (in log form) using Graphpad Prism, and the IC50 values of the compounds were obtained.

ERα = ERα (Homo sapiens (Human), UniProt P03372); assay: Degradation of ERα in MCF-7 cells (ELISA); set-up: Dmax: dose or concentration left out as unconfirmed; settings: for Dmax at 3 µM: MCF7, read-out: Emax degradation (%); for DC50: MCF-7 cells, 16 to 18 h, read-out: EC50 (nM), degradation of ERα
ERα, sequence (P03372 whole entry): as above
Experimental: ERα-positive breast cancer cell line MCF-7 cells were cultured in a DMEM/F12 medium (HyClone, SH30023.01) containing 10% fetal bovine serum (Corning, 35-010-CV). […] The following day the compounds were serially diluted with DMSO and further diluted with the phenol red-free DMEM/F12 medium containing 5% charcoal-stripped fetal bovine serum. 20 μL of a diluted compound was added to each well of the 48-well plate at final concentrations of 3000, 300, 30, 3, 0.3, 0.03 and 0.003 nM. The 48-well plate was placed in the incubator for 16 to 18 h. A 96-well plate was coated with the capture antibody from the human ERα/NR3A1 total protein assay kit (R&D, DYC5715-5). […] The plate was placed in an incubator at 26° C. overnight. On day 3, the antibody-coated 96-well plate was washed once with PBS, and 200 μL of PBS containing 1% BSA was added to each well. The plate was incubated in an incubator at 37° C. for 1.5 h to be blocked. The cell culture medium supernatant was discarded. The cells were washed once with PBS, and 60 μL of a cell lysis buffer was added to each well. […] The cells were lysed on ice for 15 min, and 300 μL of PBS containing 1 mM EDTA and 0.5% TritonX-100 was added to each well to dilute the urea to 1 M. The blocking buffer in the blocked 96-well plate was discarded, and 100 μL of diluted cell lysis buffer was added to each well. The plate was incubated in an incubator at 37° C. for 2 h and washed 5 times with PBS. A biotinylated assay antibody was diluted to 0.4 μg/mL with PBS containing 1% BSA, and then 100 μL of the assay antibody was added to each well. The plate was incubated in an incubator at 37° C. for 1 h. The plate was then washed five more times, and 100 μL of avidin-HRP diluted 200-fold with PBS containing 1% BSA was added to each well. The plate was incubated at 37° C. for 30 min. The plate was washed five more times, and 100 μL of TMB substrate was added to each well. The plate was incubated at room temperature until blue color appeared, and 100 μL of stop solution was added to each well. OD450 signal values were read using a PHERAstar multi-mode microplate reader. The IC50 values for the inhibitory activity of the compounds were calculated using Graphpad Prism software.

MCF-7 cells = assay: Inhibition of proliferation of MCF-7 cells (ATP method, Cell Titer-Glo); settings: Homo sapiens, MCF7; MCF-7 cells, 72 h
Experimental: This experiment was intended to test the inhibitory effects of the compounds disclosed herein on the proliferation of MCF-7 Cells by using the ATP method, and to evaluate the in vitro activity of the compounds according to the IC50 values.
MCF-7 cells (TCHu74, National Collection of Authenticated Cell Cultures) were seeded into a 96-well plate with an MEM (hyclone, SH30024.01B) medium containing 10% FBS (Gibco, 10099-141), 1% sodium pyruvate (sigma, 58636) and 1% non-essential amino acid (sigma, M7145) at a density of 4,000 cells/well and cultured at 37° C. with 5% CO2. 20 mM stock solutions of the compounds are prepared, serially diluted with 100% DMSO to a final concentration of 1000×, and then diluted 20-fold with a medium containing 2% FBS. After the cells were cultured for 24 h, the medium was removed. 90 μL of the medium containing 2% FBS and 10 μL of a drug were added to each well, and 10 μL of DMSO was added to the control group. The mixtures were well mixed by gentle shaking. The blank group contained only 100 μL of the medium containing 2% FBS. The cells were cultured in an incubator at 37° C. with 5% CO2 for 72 h, and then 50 μL of mixed Cell Titer-Glo (Promega, G7571) was added to each well. The mixtures were well mixed by shaking and let stand at room temperature for 10 min, and the chemiluminescence signal values were determined.
The chemiluminescence signal value was plotted against the compound concentration (in log form) using Graphpad Prism, and the IC50 values of the compounds were obtained.

C[C@@H]1Cc2cc3c(cc2[C@@H](c2ccc(N[C@H]4CCN(CCCF)C4)cc2)N1CC(F)(F)F)OCO3 [Example 1, (S)-1-(3-fluoropropyl)-N-(4-((5R,7R)-7-methyl-6-(2,2,2-trifluoroethyl)-5,6,7,8-tetrahydro-[1,3]dioxolo[4,5-g]isoquinolin-5-yl)phenyl)pyrrolidin-3-amine]
IC50 (ER (estrogen receptor)): 0.14 nM | Dmax at 3 µM (ERα): 94% | DC50 (ERα): 0.32 nM | IC50 (MCF-7 cells): 0.31 nM

C[C@@H]1Cc2cc3c(cc2[C@@H](c2c(F)cc(N[C@H]4CCN(CCCF)C4)cc2F)N1CC(F)(F)F)OCO3 [Example 2, (S)—N-(3,5-difluoro-4-((5S,7R)-7-methyl-6-(2,2,2-trifluoroethyl)-5,6,7,8-tetrahydro-[1,3]dioxolo[4,5-g]isoquinolin-5-yl)phenyl)-1-(3-fluoropropyl)pyrrolidin-3-amine]
IC50 (ER (estrogen receptor)): 0.1 nM | Dmax at 3 µM (ERα): 104% | DC50 (ERα): 0.24 nM | IC50 (MCF-7 cells): 0.17 nM

C[C@@H]1Cc2cc3c(cc2[C@@H](c2ccc(N[C@H]4CCN(CCCF)C4)cc2)N1CC(F)(F)CO)OCO3 [Example 3, 2,2-Difluoro-3-((5R,7R)-5-(4-(((S)-1-(3-fluoropropyl)pyrrolidin-3-yl)amino)phenyl)-7-methyl-7,8-dihydro-[1,3]dioxolo[4,5-g]isoquinolin-6(5H)-yl)propan-1-ol]
IC50 (ER (estrogen receptor)): 0.44 nM | Dmax at 3 µM (ERα): 129% | DC50 (ERα): 0.19 nM | IC50 (MCF-7 cells): 0.15 nM

C[C@@H]1Cc2cc3c(cc2[C@@H](c2ccc(N[C@H]4CCN(CCCF)C4)cn2)N1CC(F)(F)CO)OCO3 [Example 4, 2,2-Difluoro-3-((5S,7R)-5-(5-(((S)-1-(3-fluoropropyl)pyrrolidin-3-yl)amino)pyridin-2-yl)-7-methyl-7,8-dihydro-[1,3]dioxolo[4,5-g]isoquinolin-6(5H)-yl)propan-1-ol]
IC50 (ER (estrogen receptor)): 0.37 nM | Dmax at 3 µM (ERα): 115% | DC50 (ERα): 0.21 nM | IC50 (MCF-7 cells): 0.28 nM

C[C@@H]1Cc2cc3c(cc2[C@@H](c2c(F)cc(N[C@H]4CCN(CCCF)C4)cc2F)N1CC(F)(F)CO)OCO3 [Example 5, 3-((5S,7R)-5-(2,6-difluoro-4-(((S)-1-(3-fluoropropyl)pyrrolidin-3-yl)amino)phenyl)-7-methyl-7,8-dihydro-[1,3]dioxolo[4,5-g]isoquinolin-6(5H)-yl)-2,2-difluoro-1-propanol]
IC50 (ER (estrogen receptor)): 0.05 nM | Dmax at 3 µM (ERα): 108% | DC50 (ERα): 0.04 nM | IC50 (MCF-7 cells): 0.03 nM

C[C@@H]1Cc2cc3c(cc2[C@@H](c2ccc(N[C@H]4CCN(CCCF)C4)cn2)N1CC(F)(F)F)OCO3 [Example 6, N—((S)-1-(3-fluoropropyl)pyrrolidin-3-yl)-6-((5S,7R)-7-methyl-6-(2,2,2-trifluoroethyl)-5,6,7,8-tetrahydro-[1,3]dioxolo[4,5-g]isoquinolin-5-yl)pyridin-3-amine]
IC50 (ER (estrogen receptor)): 0.27 nM | Dmax at 3 µM (ERα): 104% | DC50 (ERα): 0.17 nM | IC50 (MCF-7 cells): 0.34 nM

C[C@@H]1Cc2cc3c(cc2[C@@H](c2ncc(N[C@H]4CCN(CCCF)C4)cc2F)N1CC(F)(F)F)OCO3 [Example 9, 5-Fluoro-N—((S)-1-(3-fluoropropyl)pyrrolidin-3-yl)-6-((5S,7R)-7-methyl-6-(2,2,2-trifluoroethyl)-5,6,7,8-tetrahydro-[1,3]dioxolo[4,5-g]isoquinolin-5-yl)pyridin-3-amine]
IC50 (ER (estrogen receptor)): 0.46 nM | Dmax at 3 µM (ERα): 107% | DC50 (ERα): 1.04 nM | IC50 (MCF-7 cells): 0.35 nM

C[C@@H]1Cc2cc3c(cc2[C@@H](c2ncc(N[C@H]4CCN(CCCF)C4)cc2F)N1CC(F)(F)CO)OCO3 [Example 11, 2,2-Difluoro-3-((5S,7R)-5-(3-fluoro-5-(((S)-1-(3-fluoropropyl)pyrrolidin-3-yl)amino)pyridin-2-yl)-7-methyl-7,8-dihydro-[1,3]dioxolo[4,5-g]isoquinolin-6(5H)-yl)propan-1-ol]
IC50 (ER (estrogen receptor)): 0.35 nM | Dmax at 3 µM (ERα): 91% | DC50 (ERα): 0.45 nM | IC50 (MCF-7 cells): 0.23 nM

[2H]C1([2H])Oc2cc3c(cc2O1)[C@@H](c1ccc(N[C@H]2CCN(CCCF)C2)cn1)N(CC(F)(F)CO)[C@H](C)C3 [Example 12, 2,2-Difluoro-3-((5S,7R)-5-(5-(((S)-1-(3-fluoropropyl)pyrrolidin-3-yl)amino)pyridin-2-yl)-7-methyl-7,8-dihydro-[1,3]dioxolo[4,5-g]isoquinolin-6(5H)-yl-2,2-d2)propan-1-ol]
IC50 (ER (estrogen receptor)): 1.13 nM | Dmax at 3 µM (ERα): 101% | DC50 (ERα): 0.15 nM | IC50 (MCF-7 cells): 1.12 nM

[2H]C1([2H])Oc2cc3c(cc2O1)[C@@H](c1ccc(NC2CN(CCCF)C2)cn1)N(CC(F)(F)CO)[C@H](C)C3 [Example 13, 2,2-Difluoro-3-((5S,7R)-5-(5-((1-(3-fluoropropyl)azetidin-3-yl)amino)pyridin-2-yl)-7-methyl-7,8-dihydro-[1,3]dioxolo[4,5-g]isoquinolin-6(5H)-yl-2,2-d2)propan-1-ol]
Dmax (ERα; MCF7, read-out: Emax degradation (%)): 107% | IC50 (MCF-7 cells): 0.29 nM

C[C@@H]1Cc2cc3c(cc2[C@@H](c2ccc(NC4CN(CCCF)C4)cn2)N1CC(F)(F)CO)OCO3 [Example 14, 2,2-Difluoro-3-((5S,7R)-5-(5-((1-(3-fluoropropyl)azetidin-3-yl)amino)pyridin-2-yl)-7-methyl-7,8-dihydro-[1,3]dioxolo[4,5-g]isoquinolin-6(5H)-yl)propan-1-ol]
IC50 (ER (estrogen receptor)): 0.5 nM | Dmax at 3 µM (ERα): 92% | DC50 (ERα): 0.5 nM | IC50 (MCF-7 cells): 0.36 nM

C[C@@H]1Cc2cc3c(cc2[C@@H](c2c(F)cc(O[C@H]4CCN(CCCF)C4)cc2F)N1CC(F)(F)F)OCO3 [Example 15, (5S,7R)-5-(2,6-difluoro-4-(((S)-1-(3-fluoropropyl)pyrrolidin-3-yl)oxy)phenyl)-7-methyl-6-(2,2,2-trifluoroethyl)-5,6,7,8-tetrahydro-[1,3]dioxolo[4,5-g]isoquinoline]
IC50 (ER (estrogen receptor)): 0.19 nM | Dmax at 3 µM (ERα): 95% | DC50 (ERα): 0.15 nM | IC50 (MCF-7 cells): 0.3 nM
